What all share (assay): relative viability (nuclei count vs DMSO), 5 days (fraction); higher = more cells survive
One assay deals with NCI-H2126. Put shortly: (§1)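 Relative viability was taken as the ratio of nuclei in treated wells to nuclei in vehicle wells. Lung cancer cell lines in 1536-well plates received compounds by pin tool one day after seeding, either one drug alone or a fixed anchor-drug dose plus five library-drug doses (not always all listed) in √10 steps. Nuclei were counted on 4× images after 5 days of treatment, and values are medians of duplicate plates.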

For another assay, the system named is NCI-H1648. In short, it runs like this: as §1
A further assay deals with NCI-H1703. Put shortly: as §1
For the next assay, the system named is A549. Put shortly: as §1
Another assay concerns IA-LM. Put shortly: as §1

Each structure is given as a SMILES string.

For `C[C@@H]1CN(CC(=O)Nc2ccc3c(c2)Cc2cccc(-c4cc(=O)cc(N5CCOCC5)o4)c2S3)C[C@H](C)O1` + CC(=O)Nc1cccc(-n2c(=O)n(C3CC3)c(=O)c3c(Nc4ccc(I)cc4F)n(C)c(=O)c(C)c32)c1 [Trametinib] (partner 0.02 µM), the relative viability with NCI-H2126 (first compound 0.04 µM) worked out at 0.558; in the assay on NCI-H2126 (first compound 0.1265 µM), 0.573; with NCI-H2126 (first compound 0.4 µM), 0.561; in the assay on NCI-H2126 (first compound 4 µM), 0.557; in the assay on NCI-H1648 (first compound 0.04 µM) it was 0.484; in the assay with NCI-H1648 (first compound 0.1265 µM) it was 0.435. For the same molecule, the values for the relative viability in the assay on NCI-H1648 (first compound 0.4 µM) and with NCI-H1648 (first compound 4 µM) were 0.474 and 0.527, respectively.
On to `C[C@@H]1CN(CC(=O)Nc2ccc3c(c2)Cc2cccc(-c4cc(=O)cc(N5CCOCC5)o4)c2S3)C[C@H](C)O1` + CC(=O)c1c(C)c2cnc(Nc3ccc(N4CCNCC4)cn3)nc2n(C2CCCC2)c1=O [Palbociclib] (partner 0.5 µM), for which the relative viability in the assay with NCI-H2126 (first compound 0.04 µM) turned out to be 0.384; in the assay with NCI-H2126 (first compound 0.1265 µM) it was 0.343; in the assay on NCI-H2126 (first compound 0.4 µM), 0.348; in the assay on NCI-H2126 (first compound 4 µM), 0.334; with NCI-H1648 (first compound 0.04 µM) it was 0.265; in the assay with NCI-H1648 (first compound 0.1265 µM) it was 0.322. Also, the relative viability in the assay with NCI-H1648 (first compound 0.4 µM) stood at 0.373; in the assay with NCI-H1648 (first compound 4 µM) it was 0.26.
In the case of `C[C@@H]1CN(CC(=O)Nc2ccc3c(c2)Cc2cccc(-c4cc(=O)cc(N5CCOCC5)o4)c2S3)C[C@H](C)O1` + NC(=O)Nc1cc(-c2cccc(F)c2)sc1C(=O)N[C@H]1CCCNC1 [AZD7762] (partner 0.2 µM), the relative viability in the assay with NCI-H1703 (first compound 0.04 µM) worked out at 0.137; in the assay with NCI-H1703 (first compound 0.1265 µM) it was 0.11; with NCI-H1703 (first compound 0.4 µM), 0.141; in the assay with NCI-H1703 (first compound 4 µM), 0.117; with NCI-H2126 (first compound 0.04 µM), 0.91; in the assay with NCI-H2126 (first compound 0.1265 µM) it was 1.02. Further, the relative viability with NCI-H2126 (first compound 0.4 µM) is 0.964; in the assay with NCI-H2126 (first compound 4 µM) it was 1.02; in the assay on NCI-H1648 (first compound 0.04 µM) it was 0.519; in the assay on NCI-H1648 (first compound 0.1265 µM), 0.574; with NCI-H1648 (first compound 0.4 µM), 0.961; with NCI-H1648 (first compound 4 µM), 0.604.
For `C[C@@H]1CN(CC(=O)Nc2ccc3c(c2)Cc2cccc(-c4cc(=O)cc(N5CCOCC5)o4)c2S3)C[C@H](C)O1` + Nc1nc2[nH]cc(CCc3ccc(C(=O)N[C@@H](CCC(=O)O)C(=O)O)cc3)c2c(=O)[nH]1 [Pemetrexed] (partner 0.2 µM), the relative viability was found to be 0.668 in the assay on NCI-H2126 (first compound 0.04 µM); 0.657 in the assay with NCI-H2126 (first compound 0.1265 µM); 0.77 in the assay with NCI-H2126 (first compound 0.4 µM); 0.695 in the assay with NCI-H2126 (first compound 4 µM); 0.588 with NCI-H1648 (first compound 0.04 µM); 0.801 in the assay with NCI-H1648 (first compound 0.1265 µM). Moreover, the relative viability with NCI-H1648 (first compound 0.4 µM) turned out to be 0.747; in the assay with NCI-H1648 (first compound 4 µM), 0.64.
Take `C[C@@H]1CN(CC(=O)Nc2ccc3c(c2)Cc2cccc(-c4cc(=O)cc(N5CCOCC5)o4)c2S3)C[C@H](C)O1` + Nc1ncn([C@H]2C[C@H](O)[C@@H](CO)O2)c(=O)n1 [Decitabine] (partner 2 µM): the relative viability in the assay with NCI-H2126 (first compound 0.04 µM) worked out at 0.543; in the assay on NCI-H2126 (first compound 0.1265 µM), 0.567; in the assay on NCI-H2126 (first compound 0.4 µM) it was 0.623; in the assay on NCI-H2126 (first compound 4 µM), 0.593; with A549 (first compound 0.04 µM), 0.24; in the assay with A549 (first compound 0.1265 µM), 0.227. Further, the relative viability with A549 (first compound 0.4 µM) is 0.254; with A549 (first compound 4 µM) it was 0.31; in the assay with NCI-H1648 (first compound 0.04 µM), 0.41; with NCI-H1648 (first compound 0.1265 µM), 0.515; with NCI-H1648 (first compound 0.4 µM), 0.591; with NCI-H1648 (first compound 4 µM), 0.434.
As for `C[C@@H]1CN(CC(=O)Nc2ccc3c(c2)Cc2cccc(-c4cc(=O)cc(N5CCOCC5)o4)c2S3)C[C@H](C)O1` + O=C(CCCCCCC(=O)Nc1ccccc1)NO [Vorinostat] (partner 1 µM), the relative viability came to 0.853 with NCI-H2126 (first compound 0.04 µM); 0.768 in the assay on NCI-H2126 (first compound 0.1265 µM); 0.759 with NCI-H2126 (first compound 0.4 µM); 0.701 with NCI-H2126 (first compound 4 µM); 0.819 in the assay with IA-LM (first compound 0.04 µM); 0.933 with IA-LM (first compound 0.1265 µM). Also, the relative viability came to 1.09 in the assay on IA-LM (first compound 0.4 µM); 0.897 with IA-LM (first compound 4 µM); 0.505 in the assay on NCI-H1648 (first compound 0.04 µM); 0.605 in the assay on NCI-H1648 (first compound 0.1265 µM); 0.644 in the assay on NCI-H1648 (first compound 0.4 µM); 0.528 in the assay with NCI-H1648 (first compound 4 µM).
Take `CC(C)Oc1cc(Nc2nc(N[C@@H](C)c3ccc(F)cn3)ncc2Cl)n[nH]1` [AZ23] + CC(=O)Nc1cccc(-n2c(=O)n(C3CC3)c(=O)c3c(Nc4ccc(I)cc4F)n(C)c(=O)c(C)c32)c1 [Trametinib] (partner 0.02 µM): the relative viability in the assay with NCI-H2126 (first compound 0.01 µM) turned out to be 0.574; in the assay on NCI-H2126 (first compound 0.03162 µM) it was 0.556; in the assay on NCI-H2126 (first compound 0.3162 µM), 0.532; in the assay with NCI-H1648 (first compound 0.01 µM), 0.374; with NCI-H1648 (first compound 0.03162 µM), 0.427; in the assay on NCI-H1648 (first compound 0.3162 µM), 0.314.
With `CC(C)Oc1cc(Nc2nc(N[C@@H](C)c3ccc(F)cn3)ncc2Cl)n[nH]1` [AZ23] + CC(=O)c1c(C)c2cnc(Nc3ccc(N4CCNCC4)cn3)nc2n(C2CCCC2)c1=O [Palbociclib] (partner 0.5 µM), the relative viability with NCI-H2126 (first compound 0.01 µM) was 0.332; in the assay with NCI-H2126 (first compound 0.03162 µM) it was 0.335; in the assay with NCI-H2126 (first compound 0.3162 µM), 0.342; with NCI-H1648 (first compound 0.01 µM), 0.227; with NCI-H1648 (first compound 0.03162 µM), 0.208; in the assay with NCI-H1648 (first compound 0.3162 µM) it was 0.23.
For `CC(C)Oc1cc(Nc2nc(N[C@@H](C)c3ccc(F)cn3)ncc2Cl)n[nH]1` [AZ23] + NC(=O)Nc1cc(-c2cccc(F)c2)sc1C(=O)N[C@H]1CCCNC1 [AZD7762] (partner 0.2 µM), the relative viability was determined as 0.126 in the assay with NCI-H1703 (first compound 0.03162 µM); 0.154 with NCI-H1703 (first compound 0.3162 µM); 1.04 with NCI-H2126 (first compound 0.01 µM); 1.07 in the assay on NCI-H2126 (first compound 0.03162 µM); 1.07 in the assay on NCI-H2126 (first compound 0.3162 µM); 0.659 in the assay on NCI-H1648 (first compound 0.01 µM). Besides, the relative viability came to 0.518 in the assay on NCI-H1648 (first compound 0.03162 µM) and 0.762 with NCI-H1648 (first compound 0.3162 µM).
`CC(C)Oc1cc(Nc2nc(N[C@@H](C)c3ccc(F)cn3)ncc2Cl)n[nH]1` [AZ23] + Nc1nc2[nH]cc(CCc3ccc(C(=O)N[C@@H](CCC(=O)O)C(=O)O)cc3)c2c(=O)[nH]1 [Pemetrexed] (partner 0.2 µM): the relative viability was 0.62 in the assay with NCI-H2126 (first compound 0.01 µM); 0.695 in the assay on NCI-H2126 (first compound 0.03162 µM); 0.679 with NCI-H2126 (first compound 0.3162 µM); 0.706 with NCI-H1648 (first compound 0.01 µM); 0.632 with NCI-H1648 (first compound 0.03162 µM); 0.807 in the assay on NCI-H1648 (first compound 0.3162 µM).
For `CC(C)Oc1cc(Nc2nc(N[C@@H](C)c3ccc(F)cn3)ncc2Cl)n[nH]1` [AZ23] + Nc1ncn([C@H]2C[C@H](O)[C@@H](CO)O2)c(=O)n1 [Decitabine] (partner 2 µM), the relative viability worked out at 0.612 in the assay on NCI-H2126 (first compound 0.01 µM); 0.615 in the assay with NCI-H2126 (first compound 0.03162 µM); 0.558 with NCI-H2126 (first compound 0.3162 µM); 0.3 in the assay on A549 (first compound 0.01 µM); 0.325 with A549 (first compound 0.03162 µM); 0.281 with A549 (first compound 0.3162 µM). Besides, the values for the relative viability in the assay on NCI-H1648 (first compound 0.01 µM), in the assay with NCI-H1648 (first compound 0.03162 µM) and in the assay on NCI-H1648 (first compound 0.3162 µM) were 0.546, 0.534 and 0.509, respectively.
For `CC(C)Oc1cc(Nc2nc(N[C@@H](C)c3ccc(F)cn3)ncc2Cl)n[nH]1` [AZ23] + O=C(CCCCCCC(=O)Nc1ccccc1)NO [Vorinostat] (partner 1 µM), the relative viability in the assay on NCI-H2126 (first compound 0.01 µM) was 0.776; with NCI-H2126 (first compound 0.03162 µM), 0.873; in the assay on NCI-H2126 (first compound 0.3162 µM) it was 0.616; with IA-LM (first compound 0.01 µM), 0.895; in the assay with IA-LM (first compound 0.03162 µM), 1.05; in the assay with IA-LM (first compound 0.3162 µM) it was 1.06. Further, the relative viability in the assay on NCI-H1648 (first compound 0.01 µM) worked out at 0.373; with NCI-H1648 (first compound 0.03162 µM), 0.567; with NCI-H1648 (first compound 0.3162 µM), 0.316.
Consider `COc1cc(N2CCC(C(N)=O)CC2)ccc1Nc1nc(N)c(Cl)c(Nc2ccccc2S(=O)(=O)C(C)C)n1` [HG-5-88-01] + CC(=O)Nc1cccc(-n2c(=O)n(C3CC3)c(=O)c3c(Nc4ccc(I)cc4F)n(C)c(=O)c(C)c32)c1 [Trametinib] (partner 0.02 µM), for which the relative viability in the assay with NCI-H2126 (first compound 0.04 µM) is 0.592; in the assay with NCI-H2126 (first compound 0.1265 µM), 0.564; in the assay on NCI-H2126 (first compound 0.4 µM), 0.557; in the assay on NCI-H2126 (first compound 1.265 µM), 0.543; in the assay with NCI-H2126 (first compound 4 µM) it was 0.558; with NCI-H1648 (first compound 0.04 µM), 0.485. The relative viability with NCI-H1648 (first compound 0.1265 µM) was 0.459; in the assay on NCI-H1648 (first compound 0.4 µM), 0.417; in the assay with NCI-H1648 (first compound 1.265 µM) it was 0.352; in the assay with NCI-H1648 (first compound 4 µM), 0.316.
`COc1cc(N2CCC(C(N)=O)CC2)ccc1Nc1nc(N)c(Cl)c(Nc2ccccc2S(=O)(=O)C(C)C)n1` [HG-5-88-01] + CC(=O)c1c(C)c2cnc(Nc3ccc(N4CCNCC4)cn3)nc2n(C2CCCC2)c1=O [Palbociclib] (partner 0.5 µM): the relative viability in the assay with NCI-H2126 (first compound 0.04 µM) amounted to 0.363; in the assay on NCI-H2126 (first compound 0.1265 µM) it was 0.352; in the assay on NCI-H2126 (first compound 0.4 µM) it was 0.378; with NCI-H2126 (first compound 1.265 µM), 0.332; in the assay with NCI-H2126 (first compound 4 µM), 0.372; with NCI-H1648 (first compound 0.04 µM) it was 0.291. Moreover, the relative viability is 0.27 with NCI-H1648 (first compound 0.1265 µM), 0.321 in the assay with NCI-H1648 (first compound 0.4 µM), 0.206 in the assay with NCI-H1648 (first compound 1.265 µM) and 0.244 with NCI-H1648 (first compound 4 µM).

The values are drawn from the supplement of paper PMC10307832.
